# Measurements reported in patent US11059815B2, “Synthesis of small molecule histone deacetylase 6 degraders, compounds formed thereby, and pharmaceutical compositions containing them” (Wisconsin Alumni Research Foundation, priority 2018, dated 2021).
# Molecular target: T1, HDAC6 (Homo sapiens, UniProt Q9UBN7)
# T1 construct: endogenous in cells; host or cells: MM1S (ATCC CRL-2974)
# T1 sequence (Q9UBN7 1-1215): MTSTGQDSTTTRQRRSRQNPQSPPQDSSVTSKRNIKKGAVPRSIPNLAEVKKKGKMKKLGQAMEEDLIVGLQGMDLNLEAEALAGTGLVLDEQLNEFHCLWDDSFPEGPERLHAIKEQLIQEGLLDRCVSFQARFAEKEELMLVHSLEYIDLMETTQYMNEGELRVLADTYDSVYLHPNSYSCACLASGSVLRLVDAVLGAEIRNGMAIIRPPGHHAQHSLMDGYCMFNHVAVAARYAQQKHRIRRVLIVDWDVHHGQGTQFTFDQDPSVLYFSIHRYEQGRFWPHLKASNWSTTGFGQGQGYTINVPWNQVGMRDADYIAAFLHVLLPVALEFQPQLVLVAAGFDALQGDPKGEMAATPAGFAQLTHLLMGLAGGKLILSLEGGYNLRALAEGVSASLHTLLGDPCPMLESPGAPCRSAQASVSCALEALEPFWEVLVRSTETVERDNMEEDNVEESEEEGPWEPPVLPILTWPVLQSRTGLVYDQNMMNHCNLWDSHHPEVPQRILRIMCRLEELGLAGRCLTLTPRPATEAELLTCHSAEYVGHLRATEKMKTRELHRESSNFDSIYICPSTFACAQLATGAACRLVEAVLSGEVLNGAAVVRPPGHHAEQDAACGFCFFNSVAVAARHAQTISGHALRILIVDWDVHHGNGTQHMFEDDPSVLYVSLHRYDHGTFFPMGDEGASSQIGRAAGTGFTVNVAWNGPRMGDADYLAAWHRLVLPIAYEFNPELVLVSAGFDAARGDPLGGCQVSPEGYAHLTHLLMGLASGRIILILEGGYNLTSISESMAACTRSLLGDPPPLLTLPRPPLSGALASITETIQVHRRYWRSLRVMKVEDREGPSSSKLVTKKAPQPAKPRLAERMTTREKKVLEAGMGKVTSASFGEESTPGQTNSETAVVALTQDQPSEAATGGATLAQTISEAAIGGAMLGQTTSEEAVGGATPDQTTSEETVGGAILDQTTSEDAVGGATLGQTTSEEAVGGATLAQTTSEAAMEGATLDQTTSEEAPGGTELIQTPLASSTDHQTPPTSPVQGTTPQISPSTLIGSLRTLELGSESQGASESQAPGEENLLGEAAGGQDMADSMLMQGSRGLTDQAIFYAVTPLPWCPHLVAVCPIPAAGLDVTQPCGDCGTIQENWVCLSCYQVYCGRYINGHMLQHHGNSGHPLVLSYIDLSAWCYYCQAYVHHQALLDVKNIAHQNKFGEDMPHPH
# Test: In-cell ELISA of HDAC6 protein level in MM1S cells
# Format: cell-based
# Details: 6 h; for DC50 / Dmax: 0.1 nM to 1 μM, nonlinear fit, ± SD; for Dmax / inhibition at 0.01 µM / inhibition at 0.1 µM: MM1.S; for Dmax: read-out: Dmax (Vehicle %); for inhibition at 0.01 µM: 10 nM, n=3, read-out: Degradation (%) 10 nM; for inhibition at 0.01 µM / inhibition at 0.1 µM: 100% minus mean (± SD) relative HDAC6 expression; for inhibition at 0.1 µM: 100 nM, n=3, read-out: Degradation (%) 100 nM
# Description: FIG. 9 is a histogram depicting the results of screening of compounds for HDAC6 degradation activity by in-cell ELISA. MM1S cells were treated with compounds at 100 nM (blue bars) or 10 nM (red bars) for 6 h. Data was normalized to vehicle (DMSO)-treated group and the bar graph represents as mean of relative HDAC6 protein level (n=3) with ±SD as error bar. Statistical significance was analyzed by one-way ANOVA. Not significant (ns) P>0.05, *P≤0.05, **P≤0.01, ***P≤0.001, ****P≤0.0001.
# FIG. 11 is a graph depicting dose response of selected degrader candidates. MM1S cells were treated for 6 h and analyzed by in-cell ELISA. Data was normalized to vehicle (DMSO)-treated group and dot plot represented as mean relative expression (n=3) with ±SD as error bar. Nonlinear fitting of inhibitor concentration vs. response (three parameters) was generated by GraphPad Prism with R2 from 0.97 to 0.99.
# FIG. 15 is a histogram depicting relative HDAC6 expression as a function of linker length for compounds 3a through 3k as described in the Examples section, Part 2. Human MM1S cells were treated with 100 nM degraders for 6 hours and analyzed by in-cell ELISA assay.
# FIG. 17 is a dose-response curve for degraders 3j (n=1), 3k (n=12) and 2, at concentrations from 1 nM to 300 nM for 4 h in MM1S. See the Examples, Part 2.
# To screen the new series of degraders, an in-cell ELISA assay was developed and validated. The compounds were treated at 100 nM and 10 nM in MM1S cells for 6 h. Resulting cells were then fixed and analyzed by in-cell ELISA. […] Degraders including 1 at 100 nM degraded 73.5% to 85.0% of HDAC6 with minor difference. At 10 nM concentration of compounds, obvious structure-activity-relationship (SAR) was observed. […] For example, 12d, 12h, 12i, 12o and 12p all achieved about 70% degradation. Among the C4-linked series, 12d with medium length linker (5+1) achieved most degradation in sub-series 12a-e (m=1). […] Among C5-linked series, the potency of sub-series 12l-p (m=1) increased with the linker length. […] It appeared that both the distance and linking positions contributed to the degradation efficiency. The rigid triazole ring in the middle of the linker likely modulated the plasticity of degrader-bridged ternary complex.
# The amount of cellular HDAC6 was measured in response to concentrations of compounds from 0.1 nM to 1 μM. […] The new degraders had single-digit nanomolar DC50, which was about 3 to 5 fold of improvement from 9.12 nM of degrader 1. […] As discussed above, most PROTACs were designed to avoid degrading other proteins except the targeted POIs. However, in these studies, it was hypothesized that HDAC6 degraders with IKZF degradation will have enhanced anti-proliferation effect MM1S cells.
# MM1S cells were harvested and plated with 5×10^5 cells in 100 μL media per well 96-wells plate. After overnight seeding, 25 μL media containing 5× dosing concentration of the compounds or vehicle was added to each well. After 6-hour treatment at 37° C. in a humidified 5% CO2 atmosphere, cells were fixed by adding 125 μL 8% formaldehyde in TBS buffer (137 mM NaCl, 25 mM Tris, 2.7 mM potassium chloride, pH 7.6) and incubated at room temperature (RT) for 15 minutes. Removal of fixing solution was followed by once rinse and twice washes with TBS-T washing buffer (137 mM NaCl, 20 mM Tris, 0.1% Tween, pH 7.6). Cells were then permeabilized by adding 100 μL 0.1% Triton-X in TBS and incubated at RT for 15 minutes. Removal of permeabilizing solution was followed by once rinse and once wash with TBS-T. Cellular endogenous peroxidases were quenched by adding 100 μL 1% H2O2 in TBS and incubation at RT for 20 minutes. Removal of quenching solution was followed by once rinse and once wash with TBS-T. Non-specific binding sites were blocked by adding […] 5% BSA in TBS-T (with 0.02% NaN3) and incubation at 4° C. overnight. […]
Compound,DC50 [nM],Dmax [%],inhibition at 0.01 µM [%],inhibition at 0.1 µM [%]
"CCCCN(Cc1ccc(C(=O)NO)cc1)C(=O)Nc1ccc(OCCn2cc(CNc3cccc4c3C(=O)N(C3CCC(=O)NC3=O)C4=O)nn2)cc1 (centres unmarked) [Compound 12a, 4-((1-butyl-3-(4-(2-(4-(((2-(2,6-dioxopiperidin-3-yl)-1,3-dioxoisoindolin-4-yl)amino)methyl)-1H-1,2,3-triazol-1-yl)ethoxy)phenyl)ureido)methyl)-N-hydroxybenzamide]",3.41 ± 0.52,88 ± 2.23,62.1 ± 1,81.3 ± 2.3
"CCCCN(Cc1ccc(C(=O)NO)cc1)C(=O)Nc1ccc(OCCCn2cc(CNc3cccc4c3C(=O)N(C3CCC(=O)NC3=O)C4=O)nn2)cc1 (centres unmarked) [Compound 12b, 4-((1-butyl-3-(4-(3-(4-(((2-(2,6-dioxopiperidin-3-yl)-1,3-dioxoisoindolin-4-yl)amino)methyl)-1H-1,2,3-triazol-1-yl)propoxy)phenyl)ureido)methyl)-N-hydroxybenzamide]",,,67.3 ± 0.8,84.1
"CCCCN(Cc1ccc(C(=O)NO)cc1)C(=O)Nc1ccc(OCCCCn2cc(CNc3cccc4c3C(=O)N(C3CCC(=O)NC3=O)C4=O)nn2)cc1 (centres unmarked) [Compound 12c, 4-((1-butyl-3-(4-(4-(4-(((2-(2,6-dioxopiperidin-3-yl)-1,3-dioxoisoindolin-4-yl)amino)methyl)-1H-1,2,3-triazol-1-yl)butoxy)phenyl)ureido)methyl)-N-hydroxybenzamide]",,,64.3 ± 3.2,85 ± 1.2
"CCCCN(Cc1ccc(C(=O)NO)cc1)C(=O)Nc1ccc(OCCCCCCn2cc(CNc3cccc4c3C(=O)N(C3CCC(=O)NC3=O)C4=O)nn2)cc1 (centres unmarked) [Compound 12e, 4-((1-butyl-3-(4-((6-(4-(((2-(2,6-dioxopiperidin-3-yl)-1,3-dioxoisoindolin-4-yl)amino)methyl)-1H-1,2,3-triazol-1-yl)hexyl)oxy)phenyl)ureido)methyl)-N-hydroxybenzamide]",,,66.1 ± 1.1,77.8 ± 1.7
"CCCCN(Cc1ccc(C(=O)NO)cc1)C(=O)Nc1ccc(OCCn2cc(CCNc3cccc4c3C(=O)N(C3CCC(=O)NC3=O)C4=O)nn2)cc1 (centres unmarked) [Compound 12f, 4-((1-butyl-3-(4-(2-(4-(2-((2-(2,6-dioxopiperidin-3-yl)-1,3-dioxoisoindolin-4-yl)amino)ethyl)-1H-1,2,3-triazol-1-yl)ethoxy)phenyl)ureido)methyl)-N-hydroxybenzamide]",,,49.3 ± 0.6,81.8 ± 0.9
"CCCCN(Cc1ccc(C(=O)NO)cc1)C(=O)Nc1ccc(OCCCn2cc(CCNc3cccc4c3C(=O)N(C3CCC(=O)NC3=O)C4=O)nn2)cc1 (centres unmarked) [Compound 12g, 4-((1-butyl-3-(4-(3-(4-(2-((2-(2,6-dioxopiperidin-3-yl)-1,3-dioxoisoindolin-4-yl)amino)ethyl)-1H-1,2,3-triazol-1-yl)propoxy)phenyl)ureido)methyl)-N-hydroxybenzamide]",,,64.8 ± 1,84.2 ± 0.4
"CCCCN(Cc1ccc(C(=O)NO)cc1)C(=O)Nc1ccc(OCCCCn2cc(CCNc3cccc4c3C(=O)N(C3CCC(=O)NC3=O)C4=O)nn2)cc1 (centres unmarked) [Compound 12h, 4-((1-butyl-3-(4-(4-(4-(2-((2-(2,6-dioxopiperidin-3-yl)-1,3-dioxoisoindolin-4-yl)amino)ethyl)-1H-1,2,3-triazol-1-yl)butoxy)phenyl)ureido)methyl)-N-hydroxybenzamide]",,,~70,79.2 ± 0.9
"CCCCN(Cc1ccc(C(=O)NO)cc1)C(=O)Nc1ccc(OCCn2cc(CCCNc3cccc4c3C(=O)N(C3CCC(=O)NC3=O)C4=O)nn2)cc1 (centres unmarked) [Compound 12i, 4-((1-butyl-3-(4-(2-(4-(3-((2-(2,6-dioxopiperidin-3-yl)-1,3-dioxoisoindolin-4-yl)amino)propyl)-1H-1,2,3-triazol-1-yl)ethoxy)phenyl)ureido)methyl)-N-hydroxybenzamide]",2.54 ± 0.32,86.3 ± 1.67,~70,83.1 ± 1
"CCCCN(Cc1ccc(C(=O)NO)cc1)C(=O)Nc1ccc(OCCCn2cc(CCCNc3cccc4c3C(=O)N(C3CCC(=O)NC3=O)C4=O)nn2)cc1 (centres unmarked) [Compound 12j, 4-((1-butyl-3-(4-(3-(4-(3-((2-(2,6-dioxopiperidin-3-yl)-1,3-dioxoisoindolin-4-yl)amino)propyl)-1H-1,2,3-triazol-1-yl)propoxy)phenyl)ureido)methyl)-N-hydroxybenzamide]",,,45.6 ± 1.6,77.3 ± 1.5
"CCCCN(Cc1ccc(C(=O)NO)cc1)C(=O)Nc1ccc(OCCCCn2cc(CCCNc3cccc4c3C(=O)N(C3CCC(=O)NC3=O)C4=O)nn2)cc1 (centres unmarked) [Compound 12k, 4-((1-butyl-3-(4-(4-(4-(3-((2-(2,6-dioxopiperidin-3-yl)-1,3-dioxoisoindolin-4-yl)amino)propyl)-1H-1,2,3-triazol-1-yl)butoxy)phenyl)ureido)methyl)-N-hydroxybenzamide]",,,50.9 ± 2.2,75.7 ± 0.8
"CCCCN(Cc1ccc(C(=O)NO)cc1)C(=O)Nc1ccc(OCCn2cc(CNc3ccc4c(c3)C(=O)N(C3CCC(=O)NC3=O)C4=O)nn2)cc1 (centres unmarked) [Compound 12l, 4-((1-butyl-3-(4-(2-(4-(((2-(2,6-dioxopiperidin-3-yl)-1,3-dioxoisoindolin-5-yl)amino)methyl)-1H-1,2,3-triazol-1-yl)ethoxy)phenyl)ureido)methyl)-N-hydroxybenzamide]",,,57.1 ± 1.4,81.4 ± 0.6
